Reference: patent publication US20130202698A1 (NANJING SANHOME PHARMACEUTICAL CO., LTD., priority 2005, published 2013)
Like-named read-outs stand apart in the source and are kept apart here. Marks after values point to notes of the source that are not given here.

How the values were obtained:
[1] = test system: motor balance and coordination; conditions: both, mouse, in vivo, 3 mg/kg
Description: Motor balance and coordination were tested using a modified beam walking method. Mice were put on a smooth beam tilted at an angle of 70 degree. Mice passed the test by standing on the beam for 0.5 minute without falling off. All the mice were pre-screened before the studies, and a total of 110 mice were selected by passing the beam test in 3 consecutive tries. The selected mice were divided into 11 groups with 10 mice in each group (half male and half female). At certain time points after drug administration, mice were tested on the beam for 3 consecutive times. A mouse was counted as failing to the test if it fell off the beam for 2 or more times.
The dose volume was 0.2 mL/10 gram and infusion rate was 0.2 mL/10 seconds. Chlorpromazine was used as the positive control.

[2] = test system: spontaneous activities of mice; conditions: both, mouse, in vivo, 3 mg/kg
Description: Mice weighing 18-22 g, half male and half female, were placed in the laboratory 24 hours before the test to adapt to the environment. The room temperature was controlled at 24±2° C. Animals were fasted for 8 hours before testing, and then placed in a transparent cage. The number of spontaneous activities of mice was counted by an automatic device (model XZ-4 by Drug Research Institute of China Academy of Medical Sciences). Mice were pre-screened by counting their spontaneous activities for five minutes and unqualified mice were excluded. A total of 110 mice were selected and divided into 11 groups with 10 mice in each group.
Chlorpromazine (3 mg/kg) was used as the positive control. The dose volume was 0.2 mL/10 gram and infusion rate was 0.2 mL/10 seconds.

[3] = test system: righting reflex; experiment: Hypnotic effect, loss of righting reflex; type: in vivo; conditions: mice, positive control, 40 mg/kg (Table 9), 10 animals
[4] = test system: isoniazid-induced convulsion; experiment: Anticonvulsant effects on isoniazid-induced convulsion in mice; type: in vivo; conditions: 2 mg/kg, positive control, Mean ± SD, n=10
Description: (§1) Mice are randomized into 4 treatment groups (n=10 with half male and half female): dextro- or levo-ornidazole (dosage 40, 80, 160 mg/kg), vehicle control group (15% propylene glycol in 0.9% sodium chloride, 20 mL/kg) and the positive control group. Animals are treated with known convulsion-inducing agents, followed by the drug or vehicle control given intravenously. The dose volume is 20 mL/kg with an infusion rate of 0.2 mL/10 seconds. The anticonvulsant effects are observed and recorded (see Tables 2-6).

[5] = test system: thiosemicarbazide-induced convulsion; experiment: Anticonvulsant effects on thiosemicarbazide-induced convulsion in mice; type: in vivo; conditions: 2 mg/kg, positive control, n=10
Description: as §1

[6] = test system: Remefline-induced convulsion; experiment: Anticonvulsant effects on Remefline-induced convulsion in mice; type: in vivo; conditions: 2 mg/kg, positive control
Description: In one experiment, the anticonvulsant effects of levo- and dextro-ornidazole against drug-induced convulsions in mice were compared. In four different animal convulsion models, mice were treated by four different seizure-inducing agents, including Remefline, Strychnine, isoniazid, thiosemicarbazide. Levo- or dextro-ornidazole was administered along with the seizure-inducing agents, and several outcomes were measured, including rate of convulsion, mortality rate, time to convulsion (latency), and time to death. Diazepam was used as a positive anticonvulsant control.
as §1, with “seconds.” for “seconds. The anticonvulsant effects are observed and recorded (see Tables 2-6).”

[7] = test system: Strychnine-induced convulsion; experiment: Anticonvulsant effects on Strychnine-induced convulsion in mice; type: in vivo; conditions: 2 mg/kg, positive control, n=10
Description: as §1

## CN(C)CCCN1c2ccccc2Sc2ccc(Cl)cc21 [Chlorpromazine]
[1]; 0.5 h
  Number of Animals Fall Off: 10
[1]; 1 h
  Number of Animals Fall Off: 10
[1]; 2 h
  Number of Animals Fall Off: 10
[1]; 3 h
  Number of Animals Fall Off: 9
[1]; 4 h
  Number of Animals Fall Off: 5
[2]; 0.5 h
  Spontaneous Activities (per 5 min): 5 ± 2 per 5 min
[2]; 1 h
  Spontaneous Activities (per 5 min): 6 ± 4 per 5 min
[2]; 2 h
  Spontaneous Activities (per 5 min): 13 ± 6 per 5 min
[2]; 3 h
  Spontaneous Activities (per 5 min): 21 ± 9 per 5 min
[2]; 4 h
  Spontaneous Activities (per 5 min): 35 ± 9 per 5 min

## CCCC(C)C1(CC)C(=O)NC(=O)NC1=O (stereo not shown) [Pentobarbital, Sodium pentobarbital]
[3]
  Number of animals Loss of Righting Flex 30 min Post-dose: 10**

## CN1C(=O)CN=C(c2ccccc2)c2cc(Cl)ccc21 [Diazepam]
[4]
  Convulsion Latency: 57.4 ± 9.7 min
  Time to Death: 79.0 ± 12.9 min
[5]
  Mortality Rate: 0/10**
  Rate of Convulsion: 2/10**
[6]; n=10
  Rate of Convulsion: 0/10**
[6]; n=10, 2 mg/kg
  Mortality Rate: 0/10**
[6]; n=10, listed as diazepam
  Mortality Rate: 0/10
[7]
  Mortality Rate: 0/10**
